# Test results from article PMC8284926 (Journal of the American Chemical Society, 2021).
# Columns and labels:
# [1] = tested on: MEFs lacking Pol β (Pol β −/−); test: Cytotoxicity in Pol β null mouse embryonic fibroblasts; type: cell-based; conditions: MMS alone
# DNA polymerase β (Pol β) = DNA polymerase β (Pol β) (Homo sapiens, UniProt P06746); conditions: cited from earlier work
Structure (SMILES),cytotoxicity relative to wild type MEFs [1],selectivity for Pol β over Pol λ (DNA polymerase β (Pol β))
"COS(C)(=O)=O [MMS, methylmethanesulfonate]",considerably more toxic,–
C=CCc1ccc(O)c(-c2ccc(O)c(CC=C)c2)c1 [honokiol],–,not selective for Pol β over Pol λ
